Patent US8280710B2, “Method for determining thermal stability of collagen or collagen-like peptide” (University of Medicine and Dentistry of New Jersey, priority 2005, dated 2012)
Non-standard residues stand in square brackets, D forms with d. Residues, ends and D or L forms follow the SMILES beside them. Hyp = O=C(O)[C@@H]1C[C@@H](O)CN1

Tests used:
[1] = for Tm^obs: peptide of Table 3, defined standard conditions
Outline: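 Host-guest peptides in Gly-Xaa1-Hyp or Gly-Pro-Xaa2 contexts were melted at 1 mg/ml in PBS, pH 7.0. The heating rate averaged 0.1° C./minute, and residue propensity was derived from the Tm values.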

[2] = Method for predicting global Tm of collagen peptides from amino acid sequence; conditions: observed minus predicted, peptides of Table 3
[3] = Predicted Tm of guest triplets/hexapeptides by additivity of Xaa1 and Xaa2 residues (Equation 1); conditions: host-guest collagen-like peptides
Protocol: A complete table of the stability for all Gly-Xaa1-Xaa2 triplets was constructed using the experimental values for all frequent sequences and the predicted values for all others (Table 1; experimental values are in bold). Predicted values were calculated on the basis of additivity of residues in the Xaa1 and Xaa2 position (Persikov, et al. (2002) supra; Equation 1). Tm^GX^1^X^2=Tm^GX^1^O+Tm^GPX^2−Tm^GPO (1)
The predicted values gave good agreement (within ±3° C.) for the Gly-Ala-Ala and for 28 other guest triplets of the 41 Gly-Xaa1-Xaa2 triplets studied in host-guest collagen-like peptides. […] Observed Tm values of Gly-Xaa1-Arg sequences (Gly-Glu-Arg, Gly-Ala-Arg, Gly-Lys-Arg, Gly-Gln-Arg, and Gly-Asp-Arg) were 2.5° C. smaller on average than predicted, indicating the need for a correction factor in a Gly-Xaa1-Arg context versus a Gly-Pro-Arg context.
Interactions between adjacent Gly-Xaa1-Xaa2 tripeptides were included in the calculations. One study reported stabilities of a selection of host-guest peptides including residues in two adjacent tripeptide units, Gly-Xaa1-Xaa2-Gly-Xaa1′-Xaa2′, covering possible direct interchain or intrachain interactions between residues that are separated by ≦3 residues in sequence (Persikov, et al. (2005) supra) (FIG. 1).

## CC(=O)NCC(=O)N1CCC[C@H]1C(=O)N[C@@H](C)C(=O)NCC(=O)N1CCC[C@H]1C(=O)N[C@@H](C)C(=O)NCC(=O)N1CCC[C@H]1C(=O)N[C@H](C(=O)NCC(=O)N1CCC[C@H]1C(=O)N[C@@H](C)C(=O)NCC(=O)N[C@@H](C)C(=O)N[C@@H](CCCNC(=N)N)C(=O)NCC(=O)N1CCC[C@H]1C(=O)N[C@@H](C)C(=O)NCC(=O)N1CCC[C@H]1C(=O)N1C[C@H](O)C[C@H]1C(=O)NCC(=O)N1CCC[C@H]1C(=O)N[C@@H](C)C(=O)NCC(=O)N1CCC[C@H]1C(=O)N1C[C@H](O)C[C@H]1C(=O)NCC(=O)N1CCC[C@H]1C(=O)N1C[C@H](O)C[C@H]1C(=O)NCC(=O)N[C@H](C(N)=O)C(C)C)C(C)C [T1-892 (O24A), Ac-(GPA)2-GPV-GPA-GAR-GPA-GPO-GPA-(GPO)2-GV-NH2] (Ac-GPAGPAGPVGPAGARGPAGP[Hyp]GPAGP[Hyp]GP[Hyp]GV-NH2)
[1]
  Tm^obs: 23.2 °C
[2]
  ΔTm: 1.4 °C

## CC(=O)NCC(=O)N1CCC[C@H]1C(=O)N[C@@H](C)C(=O)NCC(=O)N1CCC[C@H]1C(=O)N[C@@H](C)C(=O)NCC(=O)N1CCC[C@H]1C(=O)N[C@H](C(=O)NCC(=O)N1CCC[C@H]1C(=O)N[C@@H](C)C(=O)NCC(=O)N[C@@H](C)C(=O)N[C@@H](CCCNC(=N)N)C(=O)NCC(=O)N1CCC[C@H]1C(=O)N[C@@H](C)C(=O)NCC(=O)N1CCC[C@H]1C(=O)N1C[C@H](O)C[C@H]1C(=O)NCC(=O)N1CCC[C@H]1C(=O)N1C[C@H](O)C[C@H]1C(=O)NCC(=O)N[C@@H](C)C(=O)N1C[C@H](O)C[C@H]1C(=O)NCC(=O)N1CCC[C@H]1C(=O)N1C[C@H](O)C[C@H]1C(=O)NCC(=O)N[C@H](C(N)=O)C(C)C)C(C)C [T1-892 (P26A), Ac-(GPA)2-GPV-GPA-GAR-GPA-(GPO)2-GAO-GPO-GV-NH2] (Ac-GPAGPAGPVGPAGARGPAGP[Hyp]GP[Hyp]GA[Hyp]GP[Hyp]GV-NH2)
[1]
  Tm^obs: 24.1 °C
[2]
  ΔTm: 1.5 °C

## CC(C)[C@H](NC(=O)[C@@H]1CCCN1C(=O)CNC(=O)[C@H](C)NC(=O)[C@@H]1CCCN1C(=O)CNC(=O)[C@H](C)NC(=O)[C@@H]1CCCN1C(=O)CN)C(=O)NCC(=O)N1CCC[C@H]1C(=O)N[C@@H](C)C(=O)NCC(=O)N[C@@H](C)C(=O)N[C@@H](CCCNC(=N)N)C(=O)NCC(=O)N1CCC[C@H]1C(=O)N[C@@H](C)C(=O)NCC(=O)N1CCC[C@H]1C(=O)N1C[C@H](O)C[C@H]1C(=O)NCC(=O)N1CCC[C@H]1C(=O)N1C[C@H](O)C[C@H]1C(=O)NCC(=O)N1CCC[C@H]1C(=O)N1C[C@H](O)C[C@H]1C(=O)NCC(=O)N1CCC[C@H]1C(=O)N1C[C@H](O)C[C@H]1C(=O)NCC(=O)N[C@@H](Cc1ccc(O)cc1)C(=O)O [T1-892 unbl, GPA-GPA-GPV-GPA-GAR-GPA-(GPO)4-GY] (H-GPAGPAGPVGPAGARGPAGP[Hyp]GP[Hyp]GP[Hyp]GP[Hyp]GY-OH)
[1]
  Tm^obs: 20.6 °C
[2]
  ΔTm: −3.2 °C

## CC(=O)NCC(=O)N1CCC[C@H]1C(=O)N[C@@H](C)C(=O)NCC(=O)N1CCC[C@H]1C(=O)N[C@@H](C)C(=O)NCC(=O)N1CCC[C@H]1C(=O)N[C@H](C(=O)NCC(=O)N1CCC[C@H]1C(=O)N[C@@H](C)C(=O)NCC(=O)N[C@@H](C)C(=O)N[C@@H](CCCNC(=N)N)C(=O)NCC(=O)N1CCC[C@H]1C(=O)N[C@@H](C)C(=O)NCC(=O)N1CCC[C@H]1C(=O)N1C[C@H](O)C[C@H]1C(=O)NCC(=O)N1CCC[C@H]1C(=O)N1C[C@H](O)C[C@H]1C(=O)NCC(=O)N1CCC[C@H]1C(=O)N1C[C@H](O)C[C@H]1C(=O)NCC(=O)N1CCC[C@H]1C(=O)N1C[C@H](O)C[C@H]1C(=O)NCC(=O)N[C@H](C(N)=O)C(C)C)C(C)C [T1-892, Ac-GPA-GPA-GPV-GPA-GAR-GPA-(GPO)4-GV-NH2] (Ac-GPAGPAGPVGPAGARGPAGP[Hyp]GP[Hyp]GP[Hyp]GP[Hyp]GV-NH2)
[1]
  Tm^obs: 26.0 °C
[2]
  ΔTm: −2.2 °C

## CC(=O)NCC(=O)N[C@@H](CO)C(=O)N1C[C@H](O)C[C@H]1C(=O)NCC(=O)N[C@@H](C)C(=O)N[C@@H](CCC(N)=O)C(=O)NCC(=O)N[C@@H](CC(C)C)C(=O)N[C@@H](CCC(N)=O)C(=O)NCC(=O)N1CCC[C@H]1C(=O)N[C@@H](CCCNC(=N)N)C(=O)NCC(=O)N[C@@H](CC(C)C)C(=O)N1C[C@H](O)C[C@H]1C(=O)NCC(=O)N[C@H](C(=O)N1C[C@H](O)C[C@H]1C(=O)NCC(=O)N1CCC[C@H]1C(=O)N1C[C@H](O)C[C@H]1C(=O)NCC(=O)N1CCC[C@H]1C(=O)N1C[C@H](O)C[C@H]1C(=O)NCC(=O)N1CCC[C@H]1C(=O)N1C[C@H](O)C[C@H]1C(=O)NCC(=O)N1CCC[C@H]1C(=O)N1C[C@H](O)C[C@H]1C(=O)NCC(=O)N[C@H](C(=O)O)C(C)C)[C@@H](C)O [T2-508, Ac-GSO-GAQ-GLQ-GPR-GLO-GTO-(GPO)4-GV-OH] (Ac-GS[Hyp]GAQGLQGPRGL[Hyp]GT[Hyp]GP[Hyp]GP[Hyp]GP[Hyp]GP[Hyp]GV-OH)
[1]
  Tm^obs: 25.0 °C
[2]
  ΔTm: 3.9 °C

## CC[C@H](C)[C@H](NC(=O)CNC(=O)[C@@H]1C[C@@H](O)CN1C(=O)[C@@H]1CCCN1C(=O)CNC(=O)[C@@H]1C[C@@H](O)CN1C(=O)[C@@H]1CCCN1C(=O)CNC(=O)[C@@H]1C[C@@H](O)CN1C(=O)[C@@H]1CCCN1)C(=O)N[C@H](C(=O)NCC(=O)N[C@@H](C)C(=O)N[C@@H](CCCNC(=N)N)C(=O)NCC(=O)N[C@@H](CC(C)C)C(=O)N[C@@H](C)C(=O)NCC(=O)N1CCC[C@H]1C(=O)N1C[C@H](O)C[C@H]1C(=O)NCC(=O)N1CCC[C@H]1C(=O)N1C[C@H](O)C[C@H]1C(=O)NCC(=O)N1CCC[C@H]1C(=O)N1C[C@H](O)C[C@H]1C(=O)NCC(=O)N1CCC[C@H]1C(=O)N1C[C@H](O)C[C@H]1C(=O)NCC(=O)O)[C@@H](C)O [T3-785, PO-(GPO)2-GIT-GAR-GLA-(GPO)4-G] (H-P[Hyp]GP[Hyp]GP[Hyp]GITGARGLAGP[Hyp]GP[Hyp]GP[Hyp]GP[Hyp]G-OH)
[1]
  Tm^obs: 18.0 °C
[2]
  ΔTm: 0.9 °C

## CC[C@H](C)[C@H](NC(=O)CNC(=O)[C@@H]1C[C@@H](O)CN1C(=O)[C@H](CCCCN)NC(=O)CNC(=O)[C@@H]1C[C@@H](O)CN1C(=O)[C@H](CCC(=O)O)NC(=O)CNC(=O)[C@H](C)NC(=O)[C@H](CC(C)C)NC(=O)CNC(C)=O)C(=O)N1C[C@H](O)C[C@H]1C(=O)NCC(=O)N[C@@H](CC(C)C)C(=O)N1C[C@H](O)C[C@H]1C(=O)NCC(=O)N[C@@H](CCCNC(=N)N)C(=O)N[C@@H](C)C(=O)NCC(=O)N1CCC[C@H]1C(=O)N1C[C@H](O)C[C@H]1C(=O)NCC(=O)N1CCC[C@H]1C(=O)N1C[C@H](O)C[C@H]1C(=O)NCC(=O)N1CCC[C@H]1C(=O)N1C[C@H](O)C[C@H]1C(=O)NCC(=O)N1CCC[C@H]1C(=O)N1C[C@H](O)C[C@H]1C(=O)NCC(=O)N[C@H](C(N)=O)C(C)C [T7-2031, Ac-GLA-GEO-GKO-GIO-GLO-GRA-(GPO)4-GV-NH2] (Ac-GLAGE[Hyp]GK[Hyp]GI[Hyp]GL[Hyp]GRAGP[Hyp]GP[Hyp]GP[Hyp]GP[Hyp]GV-NH2)
[1]
  Tm^obs: 25.4 °C
[2]
  ΔTm: 2.1 °C

## GPS-GPR-GLO-GPO-GAO-GPQ-GFQ-GPO-(GEO)2-GAS-GPM [α1CB2]
[1]
  Tm^obs: 12 °C
[2]
  ΔTm: 3.4 °C

## Gly-Ala-Ala
[1]; host-guest peptide, (Gly-Pro-Hyp)8 host, c=1 mg/ml in phosphate-buffered saline, pH 7.0, heating rate 0.1° C./minute
  experimentally observed Tm of Gly-Xaa1-Xaa2 tripeptide unit in a triple helix: 32.9 °C
[3]
  deviation of observed Tm from predicted Tm of guest triplet: ≤ 3 °C
